Earlier results in patent publication US20090048261A1, “Pharmaceutical Composition for Treatment of Ocular Hypertension” (priority 2007, published 2009).
Where “and” joins values, the source holds several entries; their conditions need not be identical. Equal entries are not always repeated. Where two headings read alike, the source gives them in different places.

Columns and labels:
[1] = test system: patients with glaucoma or ocular hypertension; conditions: for difference in effectiveness of brimonidine and dorzolamide: jointly used with topical beta-blockers, Cantor
[2] = test system: carbonic anhydrase isoenzyme; conditions: after 4 weeks of bilateral treatment
[3] = test system: alpha-2-andrenergic receptors; conditions: compared with clonidine
[4] = topical
[5] = test system: primary open-angle glaucoma patients; conditions: 30 patients

## CCN[C@H]1C[C@H](C)S(=O)(=O)c2sc(S(N)(=O)=O)cc21 [dorzolamide]
[1]; dorzolamide at 2%, patients with intraocular pressure of at least 22 mm Hg, 30 days, Ermis
  additional reduction of intraocular pressure when added to topical brimonidine: up to 29%
[1]; human, in vivo
  reduction of intraocular pressure when added to timolol: 20%
[1]
  difference in effectiveness of brimonidine and dorzolamide: no statistically significant differences
Plasma proteins
  binding to plasma proteins: ~33%
[2]
  decrease of carbonic anhydrase isoenzyme's activity, of its basic activity: 21%

## Brimonidine tartrate
Topical administration of ophthalmic solution
  time of peak ocular antihypertensive effects: 2 to 3 h

## Brc1c(NC2=NCCN2)ccc2nccnc12 [brimonidine]
[1]; joint therapy with topical beta-blockers, adults with ocular hypertension, Simmons
  effectiveness in reducing ocular hypertension, brimonidine at 0.2% versus dorzolamide at 2%: more effective
[1]; joint treatment to topical beta-blocker therapy
  additive effect of intraocular pressure reduction: 5 mmhg and 3.7 mmhg
[1]
  difference in effectiveness of brimonidine and dorzolamide: no statistically significant differences
[3]
  selectivity to alpha-2 adrenergic receptors: higher selectivity

## CC(C)(C)NC[C@H](O)COc1nsnc1N1CCOCC1 [timolol]
Chronic use
  time over which ocular antihypertensive effect is maintained: up to three years
One drop of timolol at 0.5%
  duration of effect: over 24 hours
  start of the drug's action: after an hour
  time of peak effect: 2 h
One drop, topical ocular instillation
  start of the drug's action: within a single hour
Single dose
  duration of significant reduction of intraocular pressure: up to 24 hours
[4]
  effect over pupil size or accommodation: little or no effect
  systemic effects after absorption: decrease in heart rate, cardiac arrhythmia and bronchial spasm

## CC(C)OC(=O)CCC/C=C\C[C@@H]1[C@@H](CC[C@@H](O)CCc2ccccc2)[C@H](O)C[C@@H]1O [latanoprost]
[5]
  increase in pulsating ocular blood flow: 2.15 µL/s
  reduction of intraocular pressure: 3.75 mmHg
